Data published in PubChem BioAssay (NCI).
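Five compound concentrations were applied to cells in 96-well plates for 48 hours; endpoints were derived by simple linear interpolation of the resulting dose-response curve. TGI marks complete inhibition of growth.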

How the values were obtained:
Assay in all cases: inhibition of tumour cell growth, NCI panel, 48 h
786-0 renal = tested on: 786-0 renal
A498 renal = tested on: A498 renal
A549 NSCLC = tested on: A549 NSCLC
ACHN renal = tested on: ACHN renal
CAKI-1 renal = tested on: CAKI-1 renal
CCRF-CEM leukemia = tested on: CCRF-CEM leukemia
COLO 205 colon = tested on: COLO 205 colon
DLD-1 colon = tested on: DLD-1 colon
DMS 114 small cell lung = tested on: DMS 114 small cell lung
DMS 273 small cell lung = tested on: DMS 273 small cell lung
EKVX NSCLC = tested on: EKVX NSCLC
HCC-2998 colon = tested on: HCC-2998 colon
HCT-116 colon = tested on: HCT-116 colon
HCT-15 colon = tested on: HCT-15 colon
HL-60(TB) leukemia = tested on: HL-60(TB) leukemia
HOP-18 NSCLC = tested on: HOP-18 NSCLC
HOP-62 NSCLC = tested on: HOP-62 NSCLC
HOP-92 NSCLC = tested on: HOP-92 NSCLC
HT29 colon = tested on: HT29 colon
IGROV1 ovarian = tested on: IGROV1 ovarian
K-562 leukemia = tested on: K-562 leukemia
KM12 colon = tested on: KM12 colon
KM20L2 colon = tested on: KM20L2 colon
LOX IMVI melanoma = tested on: LOX IMVI melanoma
LXFL 529 NSCLC = tested on: LXFL 529 NSCLC
M14 melanoma = tested on: M14 melanoma
M19-MEL melanoma = tested on: M19-MEL melanoma
MALME-3M melanoma = tested on: MALME-3M melanoma
MOLT-4 leukemia = tested on: MOLT-4 leukemia
NCI-H226 lung = tested on: NCI-H226 lung
NCI-H23 lung = tested on: NCI-H23 lung
NCI-H460 lung = tested on: NCI-H460 lung
NCI-H522 lung = tested on: NCI-H522 lung
OVCAR-3 ovarian = tested on: OVCAR-3 ovarian
OVCAR-4 ovarian = tested on: OVCAR-4 ovarian
OVCAR-5 ovarian = tested on: OVCAR-5 ovarian
OVCAR-8 ovarian = tested on: OVCAR-8 ovarian
RPMI-8226 leukemia = tested on: RPMI-8226 leukemia
RXF 393 renal = tested on: RXF 393 renal
SF-268 CNS = tested on: SF-268 CNS
SF-295 CNS = tested on: SF-295 CNS
SF-539 CNS = tested on: SF-539 CNS
SK-MEL-2 melanoma = tested on: SK-MEL-2 melanoma
SK-MEL-28 melanoma = tested on: SK-MEL-28 melanoma
SK-MEL-5 melanoma = tested on: SK-MEL-5 melanoma
SK-OV-3 ovarian = tested on: SK-OV-3 ovarian
SN12C renal = tested on: SN12C renal
SNB-19 CNS = tested on: SNB-19 CNS
SNB-75 CNS = tested on: SNB-75 CNS
SNB-78 CNS = tested on: SNB-78 CNS
SR leukemia = tested on: SR leukemia
SW-620 colon = tested on: SW-620 colon
TK-10 renal = tested on: TK-10 renal
U251 CNS = tested on: U251 CNS
UACC-257 melanoma = tested on: UACC-257 melanoma
UACC-62 melanoma = tested on: UACC-62 melanoma
UO-31 renal = tested on: UO-31 renal
XF 498 CNS = tested on: XF 498 CNS

Measured: TGI

CCCCC(C(=O)CCC(=O)Nc1ccc(Cl)c(Cl)c1)C(=O)C(C)C (centres undefined)
88.8 µM: OVCAR-5 ovarian
75 µM: SNB-75 CNS
not listed: XF 498 CNS
> 100 µM: all other assays above

COc1cc(C2c3cc4c(cc3[C@H](NS(C)(=O)=O)C3COC(=O)[C@H]23)OCO4)cc(OC)c1OC (some centres undefined)
18.5 µM: MOLT-4 leukemia
0.883 µM: HL-60(TB) leukemia
0.436 µM: COLO 205 colon
0.625 µM: NCI-H226 lung
> 100 µM: 786-0 renal | ACHN renal | CCRF-CEM leukemia | DLD-1 colon | DMS 273 small cell lung | HCC-2998 colon | HCT-15 colon | HOP-18 NSCLC | HT29 colon | K-562 leukemia | KM12 colon | LOX IMVI melanoma | LXFL 529 NSCLC | M14 melanoma | MALME-3M melanoma | NCI-H460 lung | OVCAR-5 ovarian | OVCAR-8 ovarian | SF-268 CNS | SK-MEL-2 melanoma | SN12C renal | SR leukemia | TK-10 renal | UACC-257 melanoma | UACC-62 melanoma | UO-31 renal | XF 498 CNS
46.3 µM: RPMI-8226 leukemia
